Test results as given in the supplement of paper PMC10307832.

Key:
Assay in all cases: relative viability (nuclei count vs DMSO), 5 days (fraction); higher = more cells survive
Dovitinib + Linsitinib = compound: CN1CCN(c2ccc3nc(-c4c(N)c5c(F)cccc5[nH]c4=O)[nH]c3c2)CC1 [Dovitinib] + C[C@]1(O)C[C@@H](c2nc(-c3ccc4ccc(-c5ccccc5)nc4c3)c3c(N)nccn32)C1 [Linsitinib] (partner 1 µM)
In short: (§1)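 After 5 days of treatment, lung cancer cells in 1536-well plates were fixed and stained in a single step (final 0.05% Triton X-100, 1% formaldehyde, 1 ug/ml Hoechst) and their nuclei counted on 4× images. Treatment had been applied by pin tool the day after seeding as one drug alone or as a fixed anchor-drug dose with five library-drug doses (not always all listed) in √10 steps. Relative viability is the nuclei count of treated wells divided by that of vehicle wells, and values are medians of duplicate plates.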

Dovitinib + Foretinib = compound: CN1CCN(c2ccc3nc(-c4c(N)c5c(F)cccc5[nH]c4=O)[nH]c3c2)CC1 [Dovitinib] + COc1cc2c(Oc3ccc(NC(=O)C4(C(=O)Nc5ccc(F)cc5)CC4)cc3F)ccnc2cc1OCCCN1CCOCC1 [Foretinib] (partner 0.25 µM)
In short: as §1

Dovitinib + Luminespib = compound: CN1CCN(c2ccc3nc(-c4c(N)c5c(F)cccc5[nH]c4=O)[nH]c3c2)CC1 [Dovitinib] + CCNC(=O)c1noc(-c2cc(C(C)C)c(O)cc2O)c1-c1ccc(CN2CCOCC2)cc1 [Luminespib] (partner 0.01 µM)
In short: as §1

Dovitinib + Navitoclax = compound: CN1CCN(c2ccc3nc(-c4c(N)c5c(F)cccc5[nH]c4=O)[nH]c3c2)CC1 [Dovitinib] + CC1(C)CCC(c2ccc(Cl)cc2)=C(CN2CCN(c3ccc(C(=O)NS(=O)(=O)c4ccc(N[C@H](CCN5CCOCC5)CSc5ccccc5)c(S(=O)(=O)C(F)(F)F)c4)cc3)CC2)C1 [Navitoclax] (partner 0.5 µM)
In short: as §1

| Cell Line | relative viability (Dovitinib + Linsitinib; first compound 0.02 µM) | relative viability (Dovitinib + Linsitinib; first compound 0.06325 µM) | relative viability (Dovitinib + Linsitinib; first compound 0.2 µM) | relative viability (Dovitinib + Linsitinib; first compound 0.6325 µM) | relative viability (Dovitinib + Linsitinib; first compound 2 µM) | relative viability (Dovitinib + Foretinib; first compound 0.02 µM) | relative viability (Dovitinib + Foretinib; first compound 0.06325 µM) | relative viability (Dovitinib + Foretinib; first compound 0.2 µM) | relative viability (Dovitinib + Foretinib; first compound 0.6325 µM) | relative viability (Dovitinib + Foretinib; first compound 2 µM) | relative viability (Dovitinib + Luminespib; first compound 0.02 µM) | relative viability (Dovitinib + Luminespib; first compound 0.06325 µM) | relative viability (Dovitinib + Luminespib; first compound 0.2 µM) | relative viability (Dovitinib + Luminespib; first compound 0.6325 µM) | relative viability (Dovitinib + Luminespib; first compound 2 µM) | relative viability (Dovitinib + Navitoclax; first compound 0.02 µM) | relative viability (Dovitinib + Navitoclax; first compound 0.06325 µM) | relative viability (Dovitinib + Navitoclax; first compound 0.2 µM) | relative viability (Dovitinib + Navitoclax; first compound 0.6325 µM) | relative viability (Dovitinib + Navitoclax; first compound 2 µM) |
| --- | --- | --- | --- | --- | --- | --- | --- | --- | --- | --- | --- | --- | --- | --- | --- | --- | --- | --- | --- | --- |
| NCI-H358 | 0.743 | 0.656 | 0.826 | 0.66 | 0.854 | 0.619 | 0.674 | 0.683 | 0.626 | 0.761 | 0.31 | 0.306 | 0.428 | 0.813 | 0.306 |  |  |  |  |  |
| NCI-H522 |  |  |  |  |  |  |  |  |  |  | 1.15 | 0.989 | 1.01 | 1.19 | 1.07 |  |  |  |  |  |
| NCI-H650 | 0.953 | 0.675 | 0.839 | 0.95 | 1.01 | 0.955 | 1.02 | 1.1 | 1 | 1.15 | 0.798 | 0.667 | 0.808 | 0.744 | 0.788 |  |  |  |  |  |
| NCI-H661 | 0.537 | 0.547 | 0.618 | 0.613 | 0.654 | 1.05 | 1 | 1.08 | 1.07 | 1.12 | 0.87 | 0.93 | 0.924 | 0.936 | 0.975 |  |  |  |  |  |
| NCI-H1299 | 0.913 | 0.954 | 0.959 | 0.951 | 0.976 | 1.11 | 1.1 | 1.11 | 1.11 | 1.06 |  |  |  |  |  | 1.01 | 1.04 | 1.09 | 1.05 | 1.08 |
| NCI-H1563 | 1.28 | 1.17 | 1.14 | 1.21 | 1.2 | 0.983 | 0.977 | 0.975 | 0.898 | 0.953 | 0.567 | 0.481 | 0.615 | 0.509 | 0.543 |  |  |  |  |  |
| NCI-H1650 |  |  |  |  |  | 1.44 | 1.21 | 0.998 | 0.819 | 0.972 | 0.199 | 0.192 | 0.199 | 0.189 | 0.19 | 1.12 | 1.2 | 1.25 | 1.05 | 1.08 |
| NCI-H1703 | 0.853 | 0.868 | 0.671 | 0.533 | 0.403 | 0.326 | 0.332 | 0.445 | 0.355 | 0.328 |  |  |  |  |  | 1.18 | 1.41 | 0.84 | 0.775 | 0.33 |
| NCI-H1792 | 0.621 | 0.44 | 0.602 | 0.598 | 0.522 |  |  |  |  |  | 0.481 | 0.332 | 0.516 | 0.645 | 0.487 | 0.671 | 0.637 | 0.62 | 0.751 | 0.588 |
| NCI-H2170 |  |  |  |  |  | 0.992 | 0.986 | 1.02 | 0.983 | 0.974 | 0.892 | 0.79 | 0.857 | 0.538 | 0.652 | 0.58 | 0.63 | 0.756 | 0.531 | 0.612 |
| NCI-H2342 |  |  |  |  |  | 1.14 | 1.02 | 1.09 | 1.17 | 1.01 | 0.675 | 0.711 | 0.741 | 0.692 | 0.579 |  |  |  |  |  |
